Results published in paper PMC8962251 (Biomedicines, 2022).
Bridges are numbered along the chain shown (N, C = ends). Roman numbers before positions name the chains, in order. [ ]: non-standard residue; d: D form. GABA = NCCCC(=O)O

Assays:
[1] = biological target: SARS-CoV-2 S1S2 spike interaction with hACE2 (Severe acute respiratory syndrome coronavirus 2, UniProt P0DTC2); format: binding, SARS-CoV-2; human
[2] = biological target: SARS-CoV-2 RBD (Severe acute respiratory syndrome coronavirus 2, UniProt P0DTC2); format: binding
[3] = biological target: SARS-CoV-2 S1S2 monomer (Severe acute respiratory syndrome coronavirus 2, UniProt P0DTC2); format: binding
[4] = biological target: SARS-CoV-2 S1S2 trimer (Severe acute respiratory syndrome coronavirus 2, UniProt P0DTC2); format: binding
[5] = tested on: pre-formed complex of SARS-CoV-2 S1S2 monomer and hACE2; format: binding, SARS-CoV-2; human

| Compound | saturation level of the inhibitory effect (% of S1S2 binding level without compound) [1] | steady-state reduction of S1S2 binding signal to hACE2 [1] | % of theor. Rmax [2] | complex stability increase compared with CVRBDL-3 (factor) [2] | % of theor. Rmax [3] | complex stability increase compared with CVRBDL-3 (factor) [3] | % of theor. Rmax [4] | complex stability increase compared with CVRBDL-3 (factor) [4] | increase of inhibition efficiency compared with CVRBDL-3 (factor) [1] | maximum displacement compared with CVRBDL-3 (factor) [5] | DC50 ([5]; read-out: DC50 (compound concentration where 50% of the maximum displacement is reached)) |
| --- | --- | --- | --- | --- | --- | --- | --- | --- | --- | --- | --- |
| C[C@@H](O)[C@H](NC(=O)[C@H](Cc1c[nH]c2ccccc12)NC(=O)[C@@H](NC(=O)[C@H](CC(=O)O)NC(=O)[C@H](CC(N)=O)NC(=O)[C@H](CCCCN)NC(=O)[C@H](CCCCN)NC(=O)[C@H](CC(=O)O)NC(=O)[C@H](Cc1ccc(O)cc1)NC(=O)[C@H](CCC(=O)O)NC(=O)[C@H](Cc1c[nH]c2ccccc12)NC(=O)[C@H](Cc1c[nH]c2ccccc12)NC(=O)[C@H](Cc1ccccc1)NC(=O)[C@H](CC(=O)O)NC(=O)[C@@H](N)Cc1c[nH]cn1)[C@@H](C)O)C(=O)N[C@@H](CCCNC(=N)N)C(=O)N[C@@H](CCCNC(=N)N)C(=O)N[C@@H](CCCNC(=N)N)C(=O)N[C@@H](CCCNC(=N)N)C(N)=O [CVRBDL-3] | ~ 58% | ~ 33% |  |  |  |  |  |  |  |  |  |
| I: H-HDFWWEYDKKNDTWTR[GABA]R[GABA]RK-NH2 / II: H-HDFWWEYDKKNDTWTR[GABA]R[GABA]R (amide I:21-II:C) [CVRBDL-3_3] |  |  | 65% | ~ 2 | 104% | ~ 2.5 | 76% | ~ 2.5 | ~ 11 | 1.6 | 0.417 µM |
